The test system of the assay is YAP/TAZ-TEAD transcription. Kind of assay: Reporter gene assay for measuring the inhibition of YAP/TAZ-TEAD transcription (TEAD-responsive element luciferase reporter in Hek293T cells). As to conditions: Homo sapiens, HEK-293T, 24 h, Hek293T cells transiently transfected with TEAD-responsive element luciferase reporter; 24 hours incubation. The assay is classed as cell-based. As for the experimental part:
Hek293T cells are cultured in DMEM supplemented with 10% fetal bovine serum, Sodium pyruvate, Sodium bicarbonate, L-glutamine. The cells are harvested and transiently transfected with TEAD-responsive element luciferase reporter. Transfected cells are plated in 384-wells plate containing pre-diluted compounds. After 24 hours incubation at 37° C./5% CO2, assay plates were cooled down to RT and levelled to an equal volume per well, prior to the addition of 25 uL luciferase substrate SteadyLite (Perkin Elmer)/well. The plate was shaken for 10 min at 600 rpm, centrifuged for 1 min at 500 rpm and measured with an Envision reader (PerkinElmer). The amount of relative light units produced by the TEAD reporter is used to calculated percent of inhibition. The percent of reporter inhibition was calculated in the presence of a positive control inhibitor (100% inhibition) versus a condition with the presence of the vehicle basal activity of the reporter (0% inhibition). The ability of a test compound to inhibit this activity was determined as: Percentage inhibition=[[…]((RLU determined in the presence of vehicle−RLU determined for sample with test compound present) divided by (RLU determined in the presence of vehicle−RLU determined for sample with positive control inhibitor))]*100
The activities of example compounds tested are depicted in the table below. The activity ranges A, B and C refer to IC50 values in the reporter gene assay as follows: “A”: IC50<1 μM; “B”: 1 μM≤IC50≤20 μM and “C”: IC50>20 μM; NT=not tested.
(In general: A reporter such as luciferase makes a cellular process visible.)
In turn, `N#CCC(=O)NC1Cc2ccccc2N(c2ccc(C(F)(F)F)cc2)C1` (stereo not shown) [compound 052, 2-cyano-N-(1-(4-(trifluoromethyl)phenyl)-1,2,3,4-tetrahydroquinolin-3-yl)acetamide] gave an IC50 of 1000 to 20000 nM. Then `N#CCCNC1Cc2ccccc2N(c2ccc(C(F)(F)F)cc2)C1` (stereo not shown) [compound 053, 3-((1-(4-(trifluoromethyl)phenyl)-1,2,3,4-tetrahydroquinolin-3-yl)amino)propanenitrile], with 1000 to 20000 nM.

`N#CCNC1Cc2ccccc2N(c2ccc(C(F)(F)F)cc2)C1` (stereo not shown) [compound 054, 2-((1-(4-(trifluoromethyl)phenyl)-1,2,3,4-tetrahydroquinolin-3-yl)amino)acetonitrile]: the IC50 lay within 1000 to 20000 nM.

In the case of `CC(C)(C)OC(=O)NC1Cc2c(Br)cccc2N(c2ccc(C(F)(F)F)cc2)C1` (stereo not shown) [compound 055, tert-butyl (5-bromo-1-(4-(trifluoromethyl)phenyl)-1,2,3,4-tetrahydroquinolin-3-yl)carbamate], the IC50 was above 20000 nM. Then `C=CC(=O)NC1Cc2c(Br)cccc2N(c2ccc(C(F)(F)F)cc2)C1` (stereo not shown) [compound 058, N-(5-bromo-1-(4-(trifluoromethyl)phenyl)-1,2,3,4-tetrahydroquinolin-3-yl)acrylamide], with below 1000 nM. Then `CCC(=O)NC1Cc2c(Cc3cccnc3)cccc2N(c2ccc(C(F)(F)F)cc2)C1` (stereo not shown) [compound 061, N-(5-(pyridin-3-ylmethyl)-1-(4-(trifluoromethyl)phenyl)-1,2,3,4-tetrahydroquinolin-3-yl)propionamide], with 1000 to 20000 nM.

On to `C=CC(=O)NC1Cc2c(Cc3cccc(C#N)c3)cccc2N(c2ccc(C(F)(F)F)cc2)C1` (stereo not shown) [compound 062, N-(5-(3-cyanobenzyl)-1-(4-(trifluoromethyl)phenyl)-1,2,3,4-tetrahydroquinolin-3-yl)acrylamide], for which the IC50 is below 1000 nM. Then `C=CC(=O)NC1Cc2c(Cc3cccc(F)c3)cccc2N(c2ccc(C(F)(F)F)cc2)C1` (stereo not shown) [compound 063, N-(5-(3-fluorobenzyl)-1-(4-(trifluoromethyl)phenyl)-1,2,3,4-tetrahydroquinolin-3-yl)acrylamide], with below 1000 nM; and `C=CC(=O)NC1Cc2cc(C)ccc2N(c2ccc(C(F)(F)F)cc2)C1` (stereo not shown) [compound 065, N-(6-methyl-1-(4-(trifluoromethyl)phenyl)-1,2,3,4-tetrahydroquinolin-3-yl)acrylamide], with below 1000 nM.

`C=CC(=O)NC1Cc2c(Cc3ccccc3)cccc2N(c2ccc(C(F)(F)F)cc2)C1` (stereo not shown) [compound 066, N-(5-benzyl-1-(4-(trifluoromethyl)phenyl)-1,2,3,4-tetrahydroquinolin-3-yl)acrylamide] gave an IC50 below 1000 nM. Then `CCC(=O)NC1Cc2c(Cc3ccccc3)cccc2N(c2ccc(C(F)(F)F)cc2)C1` (stereo not shown) [compound 067, N-(5-benzyl-1-(4-(trifluoromethyl)phenyl)-1,2,3,4-tetrahydroquinolin-3-yl)propionamide], with 1000 to 20000 nM; and `C=CC(=O)NC1Cc2c(CN3CCOCC3)cccc2N(c2ccc(C(F)(F)F)cc2)C1` (stereo not shown) [compound 068, N-(5-(morpholinomethyl)-1-(4-(trifluoromethyl)phenyl)-1,2,3,4-tetrahydroquinolin-3-yl)acrylamide], with below 1000 nM. Then `C=CC(=O)NC1Cc2c(Nc3ccccc3)cccc2N(c2ccc(C(F)(F)F)cc2)C1` (stereo not shown) [compound 069, N-(5-(phenylamino)-1-(4-(trifluoromethyl)phenyl)-1,2,3,4-tetrahydroquinolin-3-yl)acrylamide], with below 1000 nM; and `C=CC(=O)NC1Cc2c(Nc3cccnc3)cccc2N(c2ccc(C(F)(F)F)cc2)C1` (stereo not shown) [compound 070, N-(5-(pyridin-3-ylamino)-1-(4-(trifluoromethyl)phenyl)-1,2,3,4-tetrahydroquinolin-3-yl)acrylamide], with below 1000 nM; and `CCC(=O)NC1Cc2c(Nc3ccccc3)cccc2N(c2ccc(C(F)(F)F)cc2)C1` (stereo not shown) [compound 071, N-(5-(phenylamino)-1-(4-(trifluoromethyl)phenyl)-1,2,3,4-tetrahydroquinolin-3-yl)propionamide], with 1000 to 20000 nM. Then `CCC(=O)NC1Cc2c(Nc3cccnc3)cccc2N(c2ccc(C(F)(F)F)cc2)C1` (stereo not shown) [compound 072, N-(5-(pyridin-3-ylamino)-1-(4-(trifluoromethyl)phenyl)-1,2,3,4-tetrahydroquinolin-3-yl)propionamide], with 1000 to 20000 nM; and `C=CC(=O)NC1Cc2c(NC(=O)OC(C)(C)C)cccc2N(c2ccc(C(F)(F)F)cc2)C1` (stereo not shown) [compound 074, tert-butyl (3-acrylamido-1-(4-(trifluoromethyl)phenyl)-1,2,3,4-tetrahydroquinolin-5-yl)carbamate], with below 1000 nM. `C=CC(=O)NC1Cc2c(NC(C)=O)cccc2N(c2ccc(C(F)(F)F)cc2)C1` (stereo not shown) [compound 076, N-(5-acetamido-1-(4-(trifluoromethyl)phenyl)-1,2,3,4-tetrahydroquinolin-3-yl)acrylamide] had an IC50 below 1000 nM.

Compound `C=CC(=O)NC1Cc2c(C(=O)O)cccc2N(c2ccc(C(F)(F)F)cc2)C1` (stereo not shown) [compound 079, 3-acrylamido-1-(4-(trifluoromethyl)phenyl)-1,2,3,4-tetrahydroquinoline-5-carboxylic acid] came in with an IC50 below 1000 nM.

`C=CC(=O)NC1Cc2cnccc2N(c2ccc(C(F)(F)F)cc2)C1` (stereo not shown) [compound 082, N-(1-(4-(trifluoromethyl)phenyl)-1,2,3,4-tetrahydro-1,6-naphthyridin-3-yl)acrylamide]: the IC50 is 1000 to 20000 nM.

Turning to `C=CC(=O)NCC1Cc2ccccc2N(c2ccccc2)C1` (stereo not shown) [compound 085, N-((1-phenyl-1,2,3,4-tetrahydroquinolin-3-yl)methyl)acrylamide], the IC50 was below 1000 nM.

The compound `C=CC(=O)NCC1Cc2ccccc2N(c2cccc(C(F)(F)F)c2)C1` (stereo not shown) [compound 086, N-((1-(3-(trifluoromethyl)phenyl)-1,2,3,4-tetrahydroquinolin-3-yl)methyl)acrylamide] returned an IC50 below 1000 nM.

In the case of `C=CC(=O)NCC1Cc2ccccc2N(c2ccc(C(C)C)cc2)C1` (stereo not shown) [compound 087, N-((1-(4-isopropylphenyl)-1,2,3,4-tetrahydroquinolin-3-yl)methyl)acrylamide], the IC50 was below 1000 nM. Then `C=CC(=O)NCC1Cc2ccccc2N(c2cccc(C(C)C)c2)C1` (stereo not shown) [compound 088, N-((1-(3-isopropylphenyl)-1,2,3,4-tetrahydroquinolin-3-yl)methyl)acrylamide], with below 1000 nM. Then `C=CC(=O)NCC1Cc2ccccc2N(c2ccc(Cl)cc2)C1` (stereo not shown) [compound 089, N-((1-(4-chlorophenyl)-1,2,3,4-tetrahydroquinolin-3-yl)methyl)acrylamide], with below 1000 nM; and `C=CC(=O)NCC1Cc2ccccc2N(c2cccc(OC)c2)C1` (stereo not shown) [compound 090, N-((1-(3-methoxyphenyl)-1,2,3,4-tetrahydroquinolin-3-yl)methyl)acrylamide], with below 1000 nM. Turning to `C=CC(=O)NCC1Cc2ccccc2N(c2ccc(OC)cc2)C1` (stereo not shown) [compound 091, N-((1-(4-methoxyphenyl)-1,2,3,4-tetrahydroquinolin-3-yl)methyl)acrylamide], the IC50 is below 1000 nM. Then `C=CC(=O)NCC1Cc2ccccc2N(c2ccc(-c3ccccc3)cc2)C1` (stereo not shown) [compound 092, N-((1-([1,1′-biphenyl]-4-yl)-1,2,3,4-tetrahydroquinolin-3-yl)methyl)acrylamide], with below 1000 nM.

As usually defined, the IC50 is the concentration that gives 50% inhibition. The low end stands for higher potency, the high end for lower potency.

The record behind these values is patent publication US20240025856A1, “1,2,3,4-TETRAHYDROQUINOLINE DERIVATIVES AS INHIBITORS OF THE YAP/TAZ-TEAD ACTIVATION FOR TREATING CANCER” (KATHOLIEKE UNIVERSITEIT LEUVEN, priority 2020, published 2024).
